The values that follow come from PubChem BioAssay AID516.

This assay addresses Biliverdin reductase A (Homo sapiens) (UniProt P53004). Description: ligand binding to human biliverdin reductase A – biophysical, DSF, SYPRO orange, recombinant protein (AID 516). As to conditions: recombinant BLVRA, DSF thermal shift, at 10 µM, buffer 10 mM HEPES, pH 7.5, NaCl 150 mM, active compounds read high.

Sequence of Biliverdin reductase A (Homo sapiens) (P53004 whole entry, looked up): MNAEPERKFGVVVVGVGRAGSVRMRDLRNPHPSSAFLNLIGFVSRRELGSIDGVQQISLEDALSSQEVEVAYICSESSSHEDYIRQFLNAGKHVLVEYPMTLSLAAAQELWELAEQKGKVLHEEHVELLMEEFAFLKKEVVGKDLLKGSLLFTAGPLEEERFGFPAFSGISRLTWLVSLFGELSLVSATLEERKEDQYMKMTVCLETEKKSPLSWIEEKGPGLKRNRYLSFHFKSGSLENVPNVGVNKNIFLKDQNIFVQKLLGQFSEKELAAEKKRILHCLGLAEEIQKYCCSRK

On to `C=CC1=C(C)/C(=C/c2[nH]c(Cc3[nH]c(/C=C4\NC(=O)C(C)=C4C=C)c(C)c3CCC(=O)O)c(CCC(=O)O)c2C)NC1=O`, for which the Tm shift was 3.8 Celsius.
